# Measurements taken from PubChem BioAssay (NCI).
#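 Growth conditions: 96-well plates. Treatment: test compound, 48 hours, 5 concentrations. Analysis: linear interpolation between bracketing concentrations; unreached endpoints set to highest concentration. At the GI50, growth is halved. TGI: total growth inhibition.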 Where a SMILES comes first, the peptide text is derived from it. [ ]: non-standard residue; d: D form. The star is where a group is joined. ξ: configuration not given here. ξF = NC(Cc1ccccc1)C(=O)O; Cbz = O=C(OCc1ccccc1)*; Aib = CC(C)(N)C(=O)O
# Experiments:
# Assay in all cases: inhibition of tumour cell growth, NCI panel, 48 h
# [1] = system: A498 renal
# [2] = system: COLO 205 colon
# [3] = system: KM12 colon
# [4] = system: MCF7 breast
# [5] = system: NCI-H226 lung
# [6] = system: OVCAR-8 ovarian
# [7] = system: RPMI-8226 leukemia
# [8] = system: SF-268 CNS
# [9] = system: U251 CNS
# [10] = system: UACC-62 melanoma
Compound,TGI [1] [µM],TGI [2] [µM],TGI [3] [µM],TGI [4] [µM],TGI [5] [µM],TGI [6] [µM],TGI [7] [µM],TGI [8] [µM],TGI [9] [µM],TGI [10] [µM],GI50 [5] [µM],GI50 [7] [µM]
Cn1c(=O)c2c(nc(NCCCCl)n2CC(=O)O)n(C)c1=O,> 100,> 100,> 100,> 100,> 100,> 100,> 100,> 100,> 100,> 100,–,–
Cc1cn(C2CC(n3cc(Cn4cc(F)c(=O)[nH]c4=O)nn3)C(CO)O2)c(=O)[nH]c1=O (stereo unspecified),> 100,> 100,> 100,> 100,> 100,> 100,> 100,> 100,> 100,> 100,–,–
N=C(N)SCCON1C(=O)c2ccccc2C1=O,> 100,> 100,> 100,> 100,> 100,> 100,> 100,> 100,> 100,> 100,–,–
Cn1ccnc1S/C(=C\C=C(C#N)C#N)c1ccc(Cl)cc1,3.16,> 35.6,6.22,2.62,> 22.8,3.57,53.6,14.4,6.85,9.36,3.97,19.2
CC(=O)O/C=C\OC1CCCC1(c1ccccc1)c1ccccc1 (stereo unspecified),32.9,13.8,12.9,5.42,24.8,7.3,6.13,10.3,11.6,17.5,–,–
Brc1ccc(N=NN2CCCCC2)cc1,> 100,> 100,> 100,> 100,> 100,> 100,30.9,> 100,> 100,> 100,–,–
CC(C)Oc1c(-c2c(OC(C)C)c(=O)c2=O)c(=O)c1=O,> 100,> 51.9,> 59.6,> 41.8,> 100,> 71.9,> 71.8,> 75.9,> 59.9,> 61.5,–,–
COC(=O)Cc1ccc2c(c1)Sc1ccc(CC(=O)OC)cc1N2C,99.6,53.8,> 100,> 63.5,> 93.5,> 100,> 100,> 100,> 100,> 100,–,–
CCN1CC(C)Cn2c(=O)[nH]c3cc(Br)cc1c32 (stereo unspecified),80.3,> 100,> 100,87.4,> 100,> 100,> 100,> 100,> 100,> 100,–,–
Cc1c(C)c(C)c(-n2[nH]c(=O)n(C)c2=O)c(C)c1C,> 100,> 100,> 100,> 100,> 100,> 100,> 100,> 100,> 100,> 100,–,–
O=c1[nH]nc(Cc2ccccc2)n1/N=C/c1c[nH]c2ccccc12,> 100,> 100,> 100,> 100,> 100,> 100,> 100,88.1,> 100,> 100,–,–
CCN(CC)Cc1nc2sc3c(c2c(=O)n1-c1ccccc1)CCCC3,45.2,43.6,> 100,36,33,32.7,81.9,50.3,31.3,30.4,–,–
CC1(C)OC2OC(COC(=O)C=[N+]=[N-])C3OC(C)(C)OC3C2O1 (stereo unspecified),> 100,> 100,> 100,> 100,> 100,–,> 100,> 100,> 100,> 100,–,–
O=C(NCCN(CCNC(=O)c1cccc(=O)n1O)CCN(CCNC(=O)c1cccc(=O)n1O)CCNC(=O)c1cccc(=O)n1O)c1cccc(=O)n1O,> 100,> 100,> 100,> 100,> 100,> 100,> 100,> 100,> 100,> 100,–,–
CN1CC2=C(OC(N)=C(C#N)C2c2cccs2)/C(=C/c2cccs2)C1 (stereo unspecified),> 100,> 100,> 78.9,8.33,> 100,> 67.7,> 42.7,> 31.1,> 100,> 100,–,–
COC(=O)CCCc1ccc2c(c1)CC1(C2)Cc2cc3c(cc2C1)CCCC3,> 100,53,80.6,> 100,> 100,> 100,85.2,–,> 100,67,–,–
CSc1nc(NC2CCCC2)c2cc[nH]c2n1,80.3,> 100,> 100,> 100,> 100,> 100,> 100,> 100,> 100,> 100,–,–
CC(C)(CN)CN,> 100,> 100,> 100,> 100,> 100,> 100,> 100,> 100,> 100,> 100,–,–
Cc1ccc(C(=O)OC[C@H]2CC[C@@H](n3cc(N(C)C4CCCCC4)c(=O)[nH]c3=O)O2)cc1,46.8,39.5,40.9,47.2,56.6,> 100,77.9,86.5,38.7,96.2,–,–
COc1ccc2c(c1)OC(c1cccnc1)C(c1ccccc1)C2=O (stereo unspecified),> 100,> 100,> 100,> 100,> 100,> 100,> 100,> 100,> 100,> 100,–,–
Cc1ccc(F)cc1NC(=O)O/N=C(\Cl)C(C)C,40.9,3.74,34.8,20.8,28.5,35.9,4,62.8,> 56.4,39.7,–,–

Compound,TGI [1] [µM],TGI [2] [µM],TGI [3] [µM],TGI [4] [µM],TGI [5] [µM],TGI [6] [µM],TGI [7] [µM],TGI [8] [µM],TGI [9] [µM],TGI [10] [µM],GI50 [5] [µM],GI50 [7] [µM]
CN(C)c1ccc(N2C(=S)SC(=Nc3ccccc3)C2=Nc2ccccc2)cc1,> 100,> 100,> 100,> 100,> 100,> 100,> 100,–,> 100,> 100,–,–
CCOC(C[Se]CC(OCC)OCC)OCC,> 100,> 100,> 100,> 100,46.4,> 100,> 100,–,38.4,> 100,–,–
CC(C)(NC(=O)OCc1ccccc1)C(=O)NC(Cc1ccccc1)C(=O)O (stereo unspecified) (Cbz-[Aib]-[ξF]-OH),> 100,> 100,> 100,> 100,> 100,> 100,> 100,–,> 100,> 100,–,–
NCCC(N)C(=O)O (stereo unspecified),> 100,> 100,> 100,> 100,> 100,> 100,> 100,> 100,> 100,> 100,–,–
CC(C)(C)OC(=O)n1cc(C2CNC(=O)C23CCC(=O)N3Cc2ccccc2)c2ccccc21 (stereo unspecified),35.3,33.4,78.3,80.3,41.4,–,40.8,> 100,37.3,38.7,–,–
O=C1C(Br)=CC2([N+](=O)[O-])CCNc3c(O)c4c5c(c3C2=C1Br)=NCCC=5C=N4 (stereo unspecified),14.5,0.133,14.8,1.72,6.79,2.38,0.761,6.27,3.96,3.14,–,–
COC(=O)/C=C/c1ccccc1N=[S@](C)(=O)c1ccc(C)cc1,43.8,26.7,> 100,> 100,> 100,> 100,61.3,> 100,51,> 100,–,–
CC(=O)NNc1nc(C)c(C(/C=C/c2ccc3c(c2)OCO3)=N/Nc2ccccc2)s1,> 100,> 100,> 100,> 100,> 100,> 100,> 100,> 100,> 100,> 100,–,–
COC1C(O)CC(OC2C(C)OC(Oc3cc(O)c4c(O)c5c(cc4c3)C[C@@H]([C@H](OC)C(=O)[C@@H](O)[C@@H](C)O)[C@H](OC3CC(OC4CC(OC6CC(C)(O)C(O)C(C)O6)C(O)C(C)O4)C(O)C(C)O3)C5=O)CC2OC(C)=O)OC1C (stereo partly specified),> 100,> 100,> 100,> 100,> 100,> 100,> 100,> 100,> 100,> 100,–,–
Oc1ccc(Cl)cc1C1=N/C(=N\CN2CCN(C/N=C3/N=C(c4cc(Cl)ccc4O)CC(c4ccccc4)N3)CC2)NC(c2ccccc2)C1 (stereo unspecified),> 100,> 100,> 100,> 100,> 100,> 100,76.1,> 100,> 100,> 100,–,–
COc1ccc2c(c1)O[C@@H]1C(O)Oc3cc(OC)c(OC)cc3[C@]1(O)C2=O (stereo partly specified),> 100,> 100,> 100,> 100,83.9,> 100,> 100,> 100,> 100,> 100,–,–
S=C1c2ccccc2NC(=NC2CCCC2)C2CSCN12 (stereo unspecified),> 100,> 100,> 100,> 100,> 100,> 100,> 100,> 100,> 100,> 100,–,–
COc1cc(-c2nc3cc(F)ccc3s2)ccc1O,83.8,> 100,> 100,> 100,> 100,> 100,> 100,> 100,> 100,> 100,–,–
COc1ccc2c3c1OC1CC(O)C=CC31CCN(C)C2 (stereo unspecified),> 150,> 150,> 150,> 48.8,> 150,> 15,> 150,> 91.8,> 150,> 150,–,–
C=CC[C@H]1[C@@H](O[Si](C)(C)C(C)(C)C)[C@H](n2ccc(=O)[nH]c2=O)O[C@@H]1CO[Si](C)(C)C(C)(C)C,7.83,3.4,3.49,3.8,18.6,3.93,6.03,8.64,4.44,3.5,–,–
Cc1c(-c2c(C)c3ccccc3n2S(=O)(=O)c2ccccc2)n(S(=O)(=O)c2ccccc2)c2ccccc12,> 100,> 100,> 100,> 100,> 100,> 100,> 100,> 100,> 100,> 100,–,–
CC(=O)NCCCCNCCCNC(C)=O,> 100,> 100,> 100,> 100,> 100,> 100,> 100,> 100,> 100,> 100,–,–
COc1ccc(CCn2cnc3ccccc32)cc1,> 100,> 100,> 100,> 100,> 100,> 100,> 100,> 100,> 100,> 100,–,–
CSc1c(C(=O)Nc2ccccc2)c(N)nn1-c1ccccc1,> 100,> 100,> 100,> 100,> 100,> 100,> 100,> 100,> 100,> 100,–,–
COc1cccc(N2C(=O)C3c4[nH]c5ccccc5c4C4c5ccccc5CCC4C3C2=O)c1 (stereo unspecified),8.53,> 10,> 10,> 10,> 7.52,9.9,> 10,> 10,> 8.12,> 10,–,–
Cc1cnoc1NC1=CC(=O)C(=O)c2ccccc21,> 100,> 100,> 100,16.4,> 100,> 100,50.3,94.3,13.9,29.9,–,–
